IC50, Activity and Ki data for 4 molecules are collected here from ChEMBL document CHEMBL1137489, “Inhibition of choline transport by redox-active cholinomimetic bis-catechol reagents” (Bioorg Med Chem, 2007).

SMILES strings stand for the structures. The source made the active and inactive calls. The calls are words filed in the database; no cut-off is given here.

Experiment [1] is described as follows: Inhibition of C57BL/6 mouse synaptosomal choline transporter. Set-up: species or system C57BL6.
Another experiment is filed under the species Mus musculus. Briefly: Inhibition of C57BL/6 mouse nicotinic acetyl choline receptor. Particulars: C57BL6.

Regarding `C[N+](C)(C)CCCCCC[N+](C)(C)C` [HEXAMETHONIUM CHLORIDE], the IC50 (in general, the concentration that inhibits the measured activity by half) in experiment [1] came to 130 µM.

Consider `C[N+](C)(CCCCCC[N+](C)(C)Cc1cccc(O)c1O)Cc1cccc(O)c1O`, for which the outcome in the experiment listed under Mus musculus was Active. Also, in experiment [1], the IC50 is 76 µM and the Ki (in general, a measure of affinity in units of concentration, obtained from inhibition or displacement) came out at 73 µM.

With `C[N+](C)(C)CCCCCCCCCC[N+](C)(C)C` [DECAMETHONIUM], the IC50 in experiment [1] came out at 1.5 µM.

As to `C[N+](C)(CCCCCCCCCC[N+](C)(C)Cc1cccc(O)c1O)Cc1cccc(O)c1O`, the result in the experiment filed under Mus musculus was Active. In addition, in experiment [1], the IC50 worked out at 21 µM and the Ki amounted to 31 µM.
